Source: the supplement of paper PMC10307832

Experiments:
Test in all cases: relative viability (nuclei count vs DMSO), 5 days (fraction); higher = more cells survive
[1] = compound: COc1cc(Nc2ncc(F)c(Nc3ccc4c(n3)NC(=O)C(C)(C)O4)n2)cc(OC)c1OC [R406] + O=C(CCCCCCC(=O)Nc1ccccc1)NO [Vorinostat] (partner 1 µM)
In short: (§1)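 Cells from lung cancer lines were seeded into 1536-well plates and, one day later, dosed by pin tool. Treatments were either a single drug or a fixed dose of an anchor drug with five library-drug doses (not always all listed) in √10 steps. After 5 days, nuclei were stained in a one-step fixation (final 0.05% Triton X-100, 1% formaldehyde, 1 ug/ml Hoechst) and counted on 4× images, and relative viability is the treated-to-vehicle nuclei ratio, as the median of duplicate plates.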

[2] = compound: O=C(/C=C/c1cccnc1)NCCCCC1CCN(C(=O)c2ccccc2)CC1 [Daporinad] + CC(=O)c1c(C)c2cnc(Nc3ccc(N4CCNCC4)cn3)nc2n(C2CCCC2)c1=O [Palbociclib] (partner 0.5 µM)
In short: as §1

[3] = compound: O=C(/C=C/c1cccnc1)NCCCCC1CCN(C(=O)c2ccccc2)CC1 [Daporinad] + COc1cccc2cc(-c3nc([C@H]4CC[C@H](C(=O)O)CC4)n4ncnc(N)c34)[nH]c12 [OSI-027] (partner 0.5 µM)
In short: as §1

[4] = compound: O=C(/C=C/c1cccnc1)NCCCCC1CCN(C(=O)c2ccccc2)CC1 [Daporinad] + O=C(CCCCCCC(=O)Nc1ccccc1)NO [Vorinostat] (partner 1 µM)
In short: as §1

With UMC-11 the relative viability ([1]; first compound 0.08 µM) was 0.361, the relative viability ([1]; first compound 0.253 µM) was 0.312 and the relative viability ([1]; first compound 0.8 µM) was 0.39. It also gave a relative viability ([1]; first compound 2.53 µM) of 0.304, a relative viability ([1]; first compound 8 µM) of 0.127 and a relative viability ([2]; first compound 0.0005 µM) of 0.385. It also gave a relative viability ([2]; first compound 0.001581 µM) of 0.338, a relative viability ([2]; first compound 0.005 µM) of 0.342 and a relative viability ([2]; first compound 0.01581 µM) of 0.395. For the same cell line, the relative viability ([3]; first compound 0.0005 µM) was 0.469, the relative viability ([3]; first compound 0.001581 µM) was 0.55 and the relative viability ([3]; first compound 0.005 µM) was 0.567. It also gave a relative viability ([3]; first compound 0.01581 µM) of 0.689, a relative viability ([4]; first compound 0.0005 µM) of 0.319 and a relative viability ([4]; first compound 0.001581 µM) of 0.384. The relative viability ([4]; first compound 0.005 µM) was 0.426 and the relative viability ([4]; first compound 0.01581 µM) was 0.413.
